Laboratory results: US4124726A, “Anti-inflammatory agent of benzoyl derivative” (priority 1976, dated 1978)

Test system: carragheenin edema
Test: acute carragheenin edema inhibition (anti-inflammatory effect)
Format: in vivo, male rats
Details: 100 mg/kg oral, carragheenin edema, rats; Table 2
Method: The edema was induced by subcutaneous injection of 1% carraheenin suspension in saline to the hind paws of male rats weighing 150 to 180 g. Each sample was orally given at the dosage of 100 mg/kg just before the inoculation of carragheenin.

Structure (SMILES) | Anti-inf. (edema inhibition rate) [%]
O=C(Cc1ccccc1)c1ccccc1 [compound 47] | 20.9
O=C(C(=O)c1ccccc1)c1ccccc1 [compound 53] | 20.3
COc1ccc(C(=O)C(=O)c2ccccc2)cc1 | 43.9
COc1ccc(C(=O)c2ccccc2)cc1 [compound 28] | 44.1
Cc1ccc(C(=O)C(=O)c2ccccc2)cc1 [compound 54] | 25.5
O=C(c1ccccc1)c1ccccc1 [compound 27] | 47.7

Same assay, conditions: Rattus norvegicus, po, read-out: 50% inhibition rate ED50

Structure (SMILES) | ED50 [mg/kg]
O=C(c1ccccc1)c1ccccc1 [compound 27] | 120

Same assay, conditions: Rattus norvegicus; 100 mg/kg oral, carragheenin edema, rats; Table 2; read-out: Anti-inf. (edema inhibition rate)

Structure (SMILES) | inhibition in vivo at 100 mg/kg [%]
O=C(c1ccccc1)c1ccc(C2CCCCC2)cc1 [compound 73] | 32.1
CCCCCCc1ccc(C(=O)c2ccc(C)cc2C)cc1 [Active ingredient No. 4] | 44.2
Cc1cc(C)c(C(=O)c2ccccc2)c(C)c1 [compound 30] | 64.7

Same assay, conditions: Rattus norvegicus; oral, carragheenin edema, rats; Table 2; read-out: 50% inhibition rate ED50

Structure (SMILES) | ED50 [mg/kg]
Cc1ccc(C)c(C(=O)c2ccccc2)c1 [compound 38] | 170
CCCCc1ccc(C(=O)c2ccccc2F)cc1 [compound 8] | 38
Cc1cc(C)c(C(=O)c2ccccc2)c(C)c1 [compound 30] | 45
Cc1cc(C)c(C(=O)c2ccccc2F)c(C)c1 [compound 11] | 22
CCCCc1ccc(C(=O)c2ccccc2Cl)cc1 [compound 44] | 70
CCCCc1ccc(C(=O)c2ccccc2)cc1 [compound 19] | 25
CCCCCc1ccc(C(=O)c2ccc(OC)cc2)cc1 [compound 45] | > 400
CCCCc1ccc(C(=O)c2ccccc2C)cc1 [compound 40] | 120

Test system: platelet aggregation
Test: blood platelet aggregation inhibition, collagen as inducer
Format: cell-based
Details: 10^-4 mole, rabbit PRP
Excerpt: Blood platelet aggregation inhibiting effect
Male rabbits (Japan original white strain 3.3 to 3.6 kg) were anesthetized with Thiopental sodium and blood was sampled from the carotid artery.

Structure (SMILES) | Blood platelet agg. inh. (percentage inhibition of platelet aggregation) [%]
CCCCCCCCCc1ccc(C(=O)c2ccccc2)cc1 [compound 70] | 17.2
CCCc1ccc(C(=O)c2ccccc2C)cc1 [compound 90] | 10.8
O=C(Cc1ccccc1)c1ccccc1 [compound 47] | 18.3
COc1ccc(C(=O)Cc2ccccc2)cc1 [compound 57] | 12.5
Cc1ccc(C(=O)c2ccccc2)c(C)c1 [compound 37] | 17.4
Cc1ccccc1C(=O)c1c(C)c(C)cc(C)c1C [compound 91] | 14.7
Cc1ccc(C)c(C(=O)c2ccccc2)c1 [compound 38] | 20.9
CCCCOc1ccc(C(=O)Cc2ccc(Cl)cc2)cc1 [compound 61] | 15.8
O=C(C(=O)c1ccccc1)c1ccccc1 [compound 53] | 10.1
COc1ccc(C(=O)C(=O)c2ccccc2)cc1 | 20.1
CCCc1ccc(C(=O)c2ccc(Cl)cc2)cc1 [compound 63] | 15.6
COc1ccc(C(=O)c2ccccc2)cc1 [compound 28] | 20.4
CCCCCCOc1ccc(C(=O)Cc2ccc(Cl)cc2)cc1 [compound 62] | 12.3
CC(C)c1ccc(C(=O)c2ccccc2)cc1 [compound 21] | 8.6
CCCCc1ccc(C(=O)c2ccc(C)cc2)cc1 [compound 35] | 11.3
Cc1cc(C)c(C(=O)c2ccccc2)cc1C [compound 32] | 12.4
CCCCc1ccc(C(=O)c2ccccc2F)cc1 [compound 8] | 24.0
Cc1ccc(C(=O)C(=O)c2ccccc2)cc1 [compound 54] | 15.4
CC(C)(C)c1ccc(C(=O)c2ccccc2)cc1 [compound 22] | 9.5
O=C(c1ccccc1)c1ccccc1 [compound 27] | 25.7
Cc1cc(C)c(C(=O)c2ccccc2F)c(C)c1 [compound 11] | 16.5
CCCCc1ccc(C(=O)c2ccccc2Cl)cc1 [compound 44] | 10.5
CCCCc1ccc(C(=O)c2ccccc2)cc1 [compound 19] | 18.6
CCCc1ccc(C(=O)c2ccccc2)cc1 [compound 20] | 36.6
CCCCCc1ccc(C(=O)c2ccc(C)cc2)cc1 [compound 84] | 8.6
CCCCCc1ccc(C(=O)c2ccc(OC)cc2)cc1 [compound 45] | 17.7
CCCCc1ccc(C(=O)c2ccccc2C)cc1 [compound 40] | 11.9
CCCCc1ccc(C(=O)c2ccc(CCCC)cc2)cc1 [compound 43] | 3.5

Same assay, conditions: Oryctolagus cuniculus, Platelet, 10^-4 mole, rabbit PRP, read-out: Blood platelet agg. inh. (percentage inhibition of platelet aggregation)

Structure (SMILES) | inhibition at 100 µM [%]
O=C(c1ccccc1)c1ccc(C2CCCCC2)cc1 [compound 73] | 20.3
CCCCCCc1ccc(C(=O)c2ccc(C)cc2C)cc1 [Active ingredient No. 4] | 20.5
Cc1cc(C)c(C(=O)c2ccccc2)c(C)c1 [compound 30] | 8.7

Test system: not listed separately
Test: in vivo
Details: mouse, po
Method: Each sample was dissolved in olive oil or dispersed in 1% Tween 20 aqueous solution.

Structure (SMILES) | LD50 at 72 h [mg/kg]
Cc1ccc(C(=O)c2ccccc2)c(C)c1 [compound 37] | 1000
Cc1ccc(C)c(C(=O)c2ccccc2)c1 [compound 38] | 1000
O=C(c1ccccc1)c1ccc(C2CCCCC2)cc1 [compound 73] | 6000
COc1ccc(C(=O)C(=O)c2ccccc2)cc1 | 10000
CCCCCCc1ccc(C(=O)c2ccc(C)cc2C)cc1 [Active ingredient No. 4] | 4000
COc1ccc(C(=O)c2ccccc2)cc1 [compound 28] | > 10000
CC(C)c1ccc(C(=O)c2ccccc2)cc1 [compound 21] | 2000
CCCCc1ccc(C(=O)c2ccc(C)cc2)cc1 [compound 35] | > 10000
Cc1cc(C)c(C(=O)c2ccccc2)cc1C [compound 32] | 2000
Cc1cc(C)c(C(=O)c2ccccc2)c(C)c1 [compound 30] | 1500
CC(C)(C)c1ccc(C(=O)c2ccccc2)cc1 [compound 22] | 2000
O=C(c1ccccc1)c1ccccc1 [compound 27] | 3700
Cc1cc(C)c(C(=O)c2ccccc2F)c(C)c1 [compound 11] | 500
CCCCc1ccc(C(=O)c2ccccc2Cl)cc1 [compound 44] | 2000
CCCCc1ccc(C(=O)c2ccccc2)cc1 [compound 19] | 2400
CCCc1ccc(C(=O)c2ccccc2)cc1 [compound 20] | 2000
CCCCCc1ccc(C(=O)c2ccc(C)cc2)cc1 [compound 84] | 10000
CCCCCc1ccc(C(=O)c2ccc(OC)cc2)cc1 [compound 45] | 5000
CCCCc1ccc(C(=O)c2ccccc2C)cc1 [compound 40] | 2000
CCCCc1ccc(C(=O)c2ccc(CCCC)cc2)cc1 [compound 43] | > 10000

Test system: thrombosis
Test: inhibiting effect on thrombosis (arterio-venous by-pass, silk thread)
Format: in vivo, SD type male rats
Details: 100 mg/kg oral, 5 hours before first circulation, rats
Method: Inhibiting effect on thrombosis:
The inhibiting effects of the samples of the invention on thrombosis were tested by the following test method.
A 0.5 ml of 50 μ/ml of the heparin physiological saline was added through the polyethylene tube before the first blood circulation. After the blood circulation for 15 minutes, the circulation was stopped in the middle of the tubing at artery side with a pinch cock.
Then, 0.2 ml of the heparin physiological saline was added to remove the blood coagulates on the tubing wall and another new polyethylene tubing filled with the heparin solution and containing a piece of new silk thread was attached between the venous and artery tubing ends.
The blood circulation was reestablished by opening the pinch cock. After 15 minutes, the wet weight of thrombus on the silk thread was similarly measured. In the same manner, the third circulation was performed and wet weight of thrombus measured.
The amount of thrombus was given by the equation A. [formula] Each sample was suspended in an aqueous solution of sodium carboxymethyl cellulose and the oral dose of the suspension (100 mg/kg) was performed at 5 hours before the first blood circulation. The amount of thrombus after the oral dose of the sample was calculated in the same manner as that of control circulations.
The thrombosis inhibition rate was given by the equation B. [formula]

Structure (SMILES) | Thrombosis inh. [%]
O=C(Cc1ccccc1)c1ccccc1 [compound 47] | 15.6
O=C(C(=O)c1ccccc1)c1ccccc1 [compound 53] | 19.2
COc1ccc(C(=O)C(=O)c2ccccc2)cc1 | 18.3
Cc1ccc(C(=O)C(=O)c2ccccc2)cc1 [compound 54] | 20.3
O=C(c1ccccc1)c1ccccc1 [compound 27] | 25.9

Same assay, conditions: Rattus norvegicus, po, read-out: Thrombosis inh.

Structure (SMILES) | inhibition in vivo at 100 mg/kg [%]
COc1ccc(C(=O)c2ccccc2)cc1 [compound 28] | 7.3

Same assay, conditions: Rattus norvegicus; 100 mg/kg oral, 5 hours before first circulation, rats; read-out: Thrombosis inh.

Structure (SMILES) | inhibition in vivo at 100 mg/kg [%]
CCCCCCCCCc1ccc(C(=O)c2ccccc2)cc1 [compound 70] | 10
CCCc1ccc(C(=O)c2ccccc2C)cc1 [compound 90] | 15
COc1ccc(C(=O)Cc2ccccc2)cc1 [compound 57] | 6.5
Cc1ccc(C(=O)c2ccccc2)c(C)c1 [compound 37] | 5.3
Cc1ccccc1C(=O)c1c(C)c(C)cc(C)c1C [compound 91] | 31
Cc1ccc(C)c(C(=O)c2ccccc2)c1 [compound 38] | 8.3
CCCCOc1ccc(C(=O)Cc2ccc(Cl)cc2)cc1 [compound 61] | 8.5
O=C(c1ccccc1)c1ccc(C2CCCCC2)cc1 [compound 73] | 28.8
CCCCCCc1ccc(C(=O)c2ccc(C)cc2C)cc1 [Active ingredient No. 4] | 15.9
CCCc1ccc(C(=O)c2ccc(Cl)cc2)cc1 [compound 63] | 6.2
CCCCCCOc1ccc(C(=O)Cc2ccc(Cl)cc2)cc1 [compound 62] | 7.8
CC(C)c1ccc(C(=O)c2ccccc2)cc1 [compound 21] | 5.4
CCCCc1ccc(C(=O)c2ccc(C)cc2)cc1 [compound 35] | 26.5
Cc1cc(C)c(C(=O)c2ccccc2)cc1C [compound 32] | 25
CCCCc1ccc(C(=O)c2ccccc2F)cc1 [compound 8] | 38
Cc1cc(C)c(C(=O)c2ccccc2)c(C)c1 [compound 30] | 44.8
CC(C)(C)c1ccc(C(=O)c2ccccc2)cc1 [compound 22] | 7.9
CCCCc1ccc(C(=O)c2ccccc2)cc1 [compound 19] | 7.9
CCCc1ccc(C(=O)c2ccccc2)cc1 [compound 20] | 4.1
CCCCCc1ccc(C(=O)c2ccc(C)cc2)cc1 [compound 84] | 16
CCCCc1ccc(C(=O)c2ccc(CCCC)cc2)cc1 [compound 43] | 86

Test system: painful stretchings induced by acetic acid
Test: acetic acid induced stretching (analgesic effect)
Details: 100 mg/kg oral, 0.7% acetic acid i.p., mice
Method: Each sample was orally administrated in the dosage of 100 mg/kg before injection of acetic acid.

Structure (SMILES) | Analgesic (percentage diminution of times of painful stretchings) [%]
O=C(Cc1ccccc1)c1ccccc1 [compound 47] | 13.1
Cc1ccc(C(=O)c2ccccc2)c(C)c1 [compound 37] | 9.8
Cc1ccc(C)c(C(=O)c2ccccc2)c1 [compound 38] | 18.0
O=C(C(=O)c1ccccc1)c1ccccc1 [compound 53] | 14.2
COc1ccc(C(=O)C(=O)c2ccccc2)cc1 | 10.2
COc1ccc(C(=O)c2ccccc2)cc1 [compound 28] | 4.2
CC(C)c1ccc(C(=O)c2ccccc2)cc1 [compound 21] | 16.1
Cc1cc(C)c(C(=O)c2ccccc2)cc1C [compound 32] | 26.2
CCCCc1ccc(C(=O)c2ccccc2F)cc1 [compound 8] | 14.8
Cc1ccc(C(=O)C(=O)c2ccccc2)cc1 [compound 54] | 11.3
CC(C)(C)c1ccc(C(=O)c2ccccc2)cc1 [compound 22] | 8.2
O=C(c1ccccc1)c1ccccc1 [compound 27] | 13.2
Cc1cc(C)c(C(=O)c2ccccc2F)c(C)c1 [compound 11] | 13.9
CCCCc1ccc(C(=O)c2ccccc2Cl)cc1 [compound 44] | 15.6
CCCCc1ccc(C(=O)c2ccccc2)cc1 [compound 19] | 30.1
CCCc1ccc(C(=O)c2ccccc2)cc1 [compound 20] | 17.3
CCCCCc1ccc(C(=O)c2ccc(C)cc2)cc1 [compound 84] | 15.3
CCCCCc1ccc(C(=O)c2ccc(OC)cc2)cc1 [compound 45] | 12.5
CCCCc1ccc(C(=O)c2ccccc2C)cc1 [compound 40] | 20.3

Same assay, conditions: Mus musculus, po, read-out: Analgesic (percentage diminution of times of painful stretchings)

Structure (SMILES) | inhibition in vivo at 100 mg/kg [%]
O=C(c1ccccc1)c1ccc(C2CCCCC2)cc1 [compound 73] | 10
CCCCCCc1ccc(C(=O)c2ccc(C)cc2C)cc1 [Active ingredient No. 4] | 16.3
Cc1cc(C)c(C(=O)c2ccccc2)c(C)c1 [compound 30] | 13.4
